Laboratory results taken from the NIST ThermoML archive (doi:10.1021/je500275j).
Numbers after ± are expanded uncertainties.

Experiment: xn = mol fraction of the nth substance listed
Settings: 100 kPa, Liquid; for viscosity: Falling or rolling sphere viscometry; for mass density: Vibrating tube method

CCC1CCCCC1 [ethylcyclohexane] + C1CCC(C2CCCCC2)CC1
Settings | mass density [kg/m3] | viscosity [mPa·s]
293.15 K, x2 = 0 | 788.23 ± 0.15 | 0.851 ± 0.012
293.15 K, x2 = 0.1001 | 801.13 ± 0.15 | 0.996 ± 0.012
293.15 K, x2 = 0.2003 | 813.19 ± 0.14 | 1.164 ± 0.013
293.15 K, x2 = 0.3001 | 824.41 ± 0.14 | 1.369 ± 0.014
293.15 K, x2 = 0.4002 | 835.03 ± 0.14 | 1.621 ± 0.015
293.15 K, x2 = 0.498 | 844.69 ± 0.14 | 1.848 ± 0.017
293.15 K, x2 = 0.5996 | 854.14 ± 0.14 | 2.139 ± 0.019
293.15 K, x2 = 0.6996 | 862.93 ± 0.14 | 2.451 ± 0.021
293.15 K, x2 = 0.7983 | 871.02 ± 0.14 | 2.874 ± 0.024
293.15 K, x2 = 0.901 | 879.05 ± 0.14 | 3.379 ± 0.027
298.15 K, x2 = 0 | 784.2 ± 0.15 | 0.796 ± 0.012
298.15 K, x2 = 0.1001 | 797.17 ± 0.15 | 0.934 ± 0.012
298.15 K, x2 = 0.2003 | 809.29 ± 0.14 | 1.079 ± 0.013
298.15 K, x2 = 0.3001 | 820.56 ± 0.14 | 1.264 ± 0.014
298.15 K, x2 = 0.4002 | 831.23 ± 0.14 | 1.488 ± 0.015
298.15 K, x2 = 0.498 | 840.93 ± 0.14 | 1.685 ± 0.016
298.15 K, x2 = 0.5996 | 850.42 ± 0.14 | 1.94 ± 0.017
298.15 K, x2 = 0.6996 | 859.24 ± 0.14 | 2.21 ± 0.019
298.15 K, x2 = 0.7983 | 867.36 ± 0.14 | 2.574 ± 0.022
298.15 K, x2 = 0.901 | 875.42 ± 0.14 | 3.003 ± 0.025
303.15 K, x2 = 0 | 780.16 ± 0.15 | 0.748 ± 0.011
303.15 K, x2 = 0.1001 | 793.2 ± 0.15 | 0.874 ± 0.012
303.15 K, x2 = 0.2003 | 805.38 ± 0.15 | 1.004 ± 0.012
303.15 K, x2 = 0.3001 | 816.7 ± 0.14 | 1.173 ± 0.013
303.15 K, x2 = 0.4002 | 827.42 ± 0.14 | 1.372 ± 0.014
303.15 K, x2 = 0.498 | 837.16 ± 0.14 | 1.547 ± 0.015
303.15 K, x2 = 0.5996 | 846.72 ± 0.14 | 1.77 ± 0.016
303.15 K, x2 = 0.6996 | 855.55 ± 0.14 | 2.005 ± 0.018
303.15 K, x2 = 0.7983 | 863.7 ± 0.14 | 2.322 ± 0.02
303.15 K, x2 = 0.901 | 871.8 ± 0.15 | 2.689 ± 0.022
308.15 K, x2 = 0 | 776.11 ± 0.15 | 0.704 ± 0.011
308.15 K, x2 = 0.1001 | 789.22 ± 0.15 | 0.82 ± 0.012
308.15 K, x2 = 0.2003 | 801.46 ± 0.15 | 0.938 ± 0.012
308.15 K, x2 = 0.3001 | 812.84 ± 0.14 | 1.091 ± 0.013
308.15 K, x2 = 0.4002 | 823.6 ± 0.14 | 1.258 ± 0.014
308.15 K, x2 = 0.498 | 833.39 ± 0.14 | 1.428 ± 0.014
308.15 K, x2 = 0.5996 | 842.97 ± 0.14 | 1.626 ± 0.016
308.15 K, x2 = 0.6996 | 851.86 ± 0.14 | 1.828 ± 0.017
308.15 K, x2 = 0.7983 | 860.05 ± 0.14 | 2.106 ± 0.019
308.15 K, x2 = 0.901 | 868.18 ± 0.15 | 2.425 ± 0.021
313.15 K, x2 = 0 | 772.04 ± 0.15 | 0.665 ± 0.011
313.15 K, x2 = 0.1001 | 785.22 ± 0.15 | 0.77 ± 0.011
313.15 K, x2 = 0.2003 | 797.53 ± 0.15 | 0.879 ± 0.012
313.15 K, x2 = 0.3001 | 808.96 ± 0.15 | 1.018 ± 0.012
313.15 K, x2 = 0.4002 | 819.79 ± 0.14 | 1.175 ± 0.013
313.15 K, x2 = 0.498 | 829.62 ± 0.14 | 1.32 ± 0.014
313.15 K, x2 = 0.5996 | 839.25 ± 0.14 | 1.492 ± 0.015
313.15 K, x2 = 0.6996 | 848.18 ± 0.14 | 1.675 ± 0.016
313.15 K, x2 = 0.7983 | 856.4 ± 0.14 | 1.92 ± 0.017
313.15 K, x2 = 0.901 | 864.56 ± 0.15 | 2.197 ± 0.019
318.15 K, x2 = 0 | 767.96 ± 0.15 | 0.629 ± 0.011
318.15 K, x2 = 0.1001 | 781.22 ± 0.15 | 0.727 ± 0.011
318.15 K, x2 = 0.2003 | 793.59 ± 0.15 | 0.825 ± 0.012
318.15 K, x2 = 0.3001 | 805.08 ± 0.15 | 0.951 ± 0.012
318.15 K, x2 = 0.4002 | 815.96 ± 0.15 | 1.094 ± 0.013
318.15 K, x2 = 0.498 | 825.85 ± 0.14 | 1.225 ± 0.013
318.15 K, x2 = 0.5996 | 835.52 ± 0.14 | 1.381 ± 0.014
318.15 K, x2 = 0.6996 | 844.5 ± 0.14 | 1.542 ± 0.015
318.15 K, x2 = 0.7983 | 852.76 ± 0.15 | 1.759 ± 0.016
318.15 K, x2 = 0.901 | 860.95 ± 0.15 | 2.002 ± 0.018
